Results taken from ChEMBL document CHEMBL1201862, “PubChem BioAssay data set” (2004).
The source made the active and inactive calls.

Tests used:
[1] = Trypanosoma cruzi growth suppression in host cells – NIH3T3 host cells, beta-gal luminescence, confirmation (AID 2044); type: functional, cell-based;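 also: intracellular parasites grown in NIH/3T3 mouse fibroblasts as host cells; luminescent beta-galactosidase reporter signal from transgenic T. cruzi replicating inside host cells; inhibitors lower the luminescence signal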
[2] = NIH3T3 cell viability loss – ATP luminescence, mouse fibroblasts, counter-screen, dose response (AID 2010); type: functional, cell-based;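 also: cells exposed to compound for about 90 hours before reading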
[3] = cells
[4] = HPDE-C7 pancreatic duct cell viability loss – fluorescence, HTS (AID 430); type: functional, cell-based; settings: Homo sapiens
[5] = viability loss of HPDE-C7K cells – cell-based, fluorescence, HTS, primary screen (AID 431); type: functional; settings: Homo sapiens
[6] = viability inhibitors of stage V gametocytes – luminescence, dose response (AID 1117278); type: functional, cell-based;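 also: gametocytes exposed to compound for 24 hours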
[7] = viability loss in human Jurkat cells – cell-based, luminescence, cytotoxicity control for P. falciparum gametocyte viability project, dose response (AID 1117277); type: functional;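 also: potency reflects loss of cellular ATP meaning fewer viable cells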
[8] = molecular target: NS3 (Hepatitis C virus, UniProt A3EZJ3); experiment: PubChem AID 2173; parameters: species or system Hepacivirus hominis
[9] = molecular target: Major prion protein (Homo sapiens, UniProt P04156); type: functional, cell-based
[10] = cells; remark: listed apart in the source
[11] = molecular target: Peroxisome proliferator-activated receptor gamma/Nuclear receptor coactivator 2 (Homo sapiens, UniProt P37231); type: functional;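 also: agonist potency for raising coactivator recruitment to the receptor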
[12] = molecular target: Peroxisome proliferator-activated receptor gamma/Nuclear receptor coactivator 1 (Homo sapiens, UniProt P37231); type: functional;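 also: agonist potency as compounds enhance coactivator SRC-1 recruitment to PPARgamma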
[13] = molecular target: Peroxisome proliferator-activated receptor gamma/Nuclear receptor coactivator 3 (Homo sapiens, UniProt P37231); type: functional;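 also: agonist potency for raising coactivator recruitment to the receptor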
[14] = molecular target: T1, Estrogen receptor (Homo sapiens, UniProt P03372); experiment: ERα coactivator recruitment enhancers – biochemical, TR-FRET, ERα LBD, dose response (AID 737)
T1 sequence (P03372 whole entry): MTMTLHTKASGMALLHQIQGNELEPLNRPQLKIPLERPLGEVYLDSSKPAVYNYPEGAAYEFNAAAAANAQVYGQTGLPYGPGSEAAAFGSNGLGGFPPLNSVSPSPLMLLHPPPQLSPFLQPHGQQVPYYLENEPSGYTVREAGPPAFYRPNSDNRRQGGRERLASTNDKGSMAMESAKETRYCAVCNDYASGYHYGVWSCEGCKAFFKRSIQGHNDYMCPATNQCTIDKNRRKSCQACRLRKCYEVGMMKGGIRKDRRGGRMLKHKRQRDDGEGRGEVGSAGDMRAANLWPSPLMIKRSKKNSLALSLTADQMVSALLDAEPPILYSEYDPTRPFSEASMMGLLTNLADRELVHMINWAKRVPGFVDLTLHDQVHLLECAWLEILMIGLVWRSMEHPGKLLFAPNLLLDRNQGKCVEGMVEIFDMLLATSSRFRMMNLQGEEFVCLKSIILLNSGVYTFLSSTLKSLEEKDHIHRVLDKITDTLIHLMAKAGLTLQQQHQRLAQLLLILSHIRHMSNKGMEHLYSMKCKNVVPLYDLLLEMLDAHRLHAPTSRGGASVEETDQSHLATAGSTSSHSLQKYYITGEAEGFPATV

[15] = molecular target: Sphingosine 1-phosphate receptor 2 (Homo sapiens, UniProt O95136); experiment: Dose Response Cell Based Assay for Agonists of the S1P2 Receptor of Purchased Analogues. [Related pubchem assays: 729, 843, 854, 736 ]; type: functional
[16] = molecular target: T2, RNA-binding protein pos-1 (Caenorhabditis elegans, UniProt G5EF15); experiment: disruptors of C. elegans POS-1 RNA interaction – biochemical, fluorescence polarization, dose response (AID 1964);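 also: purified POS-1 fused to maltose binding protein made in E. coli; potency of compounds blocking POS-1 binding to fluorescent RNA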
T2 sequence (G5EF15 whole entry): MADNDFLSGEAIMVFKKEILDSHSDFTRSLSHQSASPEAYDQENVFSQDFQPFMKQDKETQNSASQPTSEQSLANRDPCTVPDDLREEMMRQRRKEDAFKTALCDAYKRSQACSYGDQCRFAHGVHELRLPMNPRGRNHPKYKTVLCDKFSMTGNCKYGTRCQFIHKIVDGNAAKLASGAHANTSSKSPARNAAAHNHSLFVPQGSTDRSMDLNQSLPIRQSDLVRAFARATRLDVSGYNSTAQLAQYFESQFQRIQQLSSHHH

[17] = molecular target: T3, Zinc finger protein mex-5 (Caenorhabditis elegans, UniProt Q9XUB2); experiment: potency of MEX-5 RNA-binding blockers – biochemical, C. elegans, fluorescence polarization, dose response (AID 1960)
T3 sequence (Q9XUB2 whole entry): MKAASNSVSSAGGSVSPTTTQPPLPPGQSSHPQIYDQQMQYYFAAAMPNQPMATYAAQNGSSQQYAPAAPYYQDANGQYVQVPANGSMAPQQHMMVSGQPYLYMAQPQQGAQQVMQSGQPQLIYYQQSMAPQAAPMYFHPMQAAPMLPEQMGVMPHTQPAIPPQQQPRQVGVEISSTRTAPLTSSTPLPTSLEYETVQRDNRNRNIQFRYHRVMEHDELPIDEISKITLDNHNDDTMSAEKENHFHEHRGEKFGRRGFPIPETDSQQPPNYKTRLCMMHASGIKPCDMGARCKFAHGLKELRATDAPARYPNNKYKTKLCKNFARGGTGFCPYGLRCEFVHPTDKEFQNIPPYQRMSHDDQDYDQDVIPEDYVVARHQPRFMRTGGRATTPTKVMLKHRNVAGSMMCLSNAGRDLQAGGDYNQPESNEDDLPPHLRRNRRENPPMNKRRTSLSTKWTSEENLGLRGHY

[18] = molecular target: Nonstructural protein 1 (Influenza A virus, UniProt Q194T2); type: functional, Influenza A virus (A/California/07/2009(H1N1))
[19] = viability loss in HeLa cells – cytotoxicity control for MgcRacGAP inhibitor project, dose response (AID 624300); type: functional
[20] = molecular target: T4, Rac GTPase-activating protein 1 (Homo sapiens, UniProt Q9H0H5); experiment: blockers of MgcRacGAP-driven Rac1 GTP hydrolysis – biochemical, ADP Hunter fluorescence, primary and confirmatory, confirmation (AID 624330); type: functional
T4 sequence (Q9H0H5 whole entry): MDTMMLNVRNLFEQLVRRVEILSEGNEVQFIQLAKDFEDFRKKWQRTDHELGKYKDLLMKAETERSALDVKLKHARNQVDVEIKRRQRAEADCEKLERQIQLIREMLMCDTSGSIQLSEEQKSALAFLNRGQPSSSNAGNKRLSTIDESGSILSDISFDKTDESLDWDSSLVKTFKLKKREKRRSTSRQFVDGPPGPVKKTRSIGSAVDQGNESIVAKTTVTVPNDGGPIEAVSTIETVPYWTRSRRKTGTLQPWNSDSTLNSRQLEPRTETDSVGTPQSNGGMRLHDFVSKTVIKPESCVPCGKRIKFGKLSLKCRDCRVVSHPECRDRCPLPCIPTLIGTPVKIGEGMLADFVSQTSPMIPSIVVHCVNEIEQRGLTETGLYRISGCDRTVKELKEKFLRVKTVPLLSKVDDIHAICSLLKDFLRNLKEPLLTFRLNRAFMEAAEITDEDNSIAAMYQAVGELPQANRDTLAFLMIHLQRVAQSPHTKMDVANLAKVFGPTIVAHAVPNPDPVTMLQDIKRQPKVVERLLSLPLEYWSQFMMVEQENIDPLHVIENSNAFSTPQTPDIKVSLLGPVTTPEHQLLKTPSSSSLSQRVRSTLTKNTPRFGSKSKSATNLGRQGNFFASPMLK

[21] = molecular target: T5, DNA repair protein RAD52 homolog (Homo sapiens, UniProt P43351); type: functional, biochemical
T5 sequence (P43351 whole entry): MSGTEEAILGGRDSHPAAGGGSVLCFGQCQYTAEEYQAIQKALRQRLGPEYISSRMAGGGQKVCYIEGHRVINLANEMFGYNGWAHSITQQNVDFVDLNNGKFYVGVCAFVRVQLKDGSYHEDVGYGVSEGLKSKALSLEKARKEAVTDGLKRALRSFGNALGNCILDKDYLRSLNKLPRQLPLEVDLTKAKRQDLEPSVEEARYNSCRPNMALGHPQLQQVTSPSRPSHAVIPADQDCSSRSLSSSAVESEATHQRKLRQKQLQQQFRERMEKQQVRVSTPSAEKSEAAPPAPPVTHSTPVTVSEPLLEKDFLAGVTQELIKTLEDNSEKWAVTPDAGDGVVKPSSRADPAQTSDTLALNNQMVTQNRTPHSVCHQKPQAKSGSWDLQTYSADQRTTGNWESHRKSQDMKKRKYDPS

[22] = molecular target: RNA-editing ligase 1, mitochondrial (Trypanosoma brucei brucei, UniProt P86926); experiment: inhibition of trypanosome RNA editing ligase – biochemical, fluorescence, Trypanosoma brucei, dose response (AID 1117295); type: functional
[23] = molecular target: Glyceraldehyde-3-phosphate dehydrogenase (Homo sapiens, UniProt P04406)
[24] = molecular target: T6, Bcl-2-related protein A1 (Mus musculus, UniProt Q07440); experiment: small-molecule antagonists of Bfl-1/BH3 interaction – biochemical, TR-FRET, mouse Bfl-1, confirmation (AID 621);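 also: TR-FRET binding of GST-Bfl-1 to FITC-labelled Bid peptide via terbium antibody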
T6 sequence (Q07440 whole entry): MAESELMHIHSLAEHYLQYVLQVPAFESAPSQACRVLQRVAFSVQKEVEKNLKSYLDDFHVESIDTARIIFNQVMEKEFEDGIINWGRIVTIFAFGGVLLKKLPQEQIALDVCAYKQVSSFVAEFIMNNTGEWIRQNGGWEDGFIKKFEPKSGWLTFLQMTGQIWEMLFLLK

[25] = molecular target: T6, Bcl-2-related protein A1; experiment: Bfl-1 binding inhibitors, SAR follow-up, biochemical, fluorescence polarization (AID 1070)
[26] = molecular target: Protein Tat (Human immunodeficiency virus type 1 group M subtype B (isolate HXB2)(HIV-1), UniProt P04608); type: functional;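 also: tat binding to TAR RNA read out by fluorescence polarization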
[27] = growth inhibition of yeast DHODH-expressing 3D7 parasites – SYBR Green, dry powder samples, dose response (AID 1159570); type: functional, cell-based;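 also: parasite growth measured after 72 hours of compound exposure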
[28] = P. falciparum Dd2 growth inhibitors, dose response, SYBR Green, cherry-picked samples (AID 1159567); type: functional, cell-based
[29] = Dd2 malaria parasite growth inhibition potency – SYBR Green, dry powder samples, dose response (AID 1159566); type: functional, cell-based;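 also: potency for growth inhibition with lower SYBR green DNA signal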
[30] = growth inhibition of PfATP4-mutant resistant parasites – NITD609-resistant line, SYBR Green, dry powder, dose response (AID 1159571); type: functional, cell-based;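 also: parasites synchronized at ring stage by sorbitol before testing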
[31] = viability of uninfected HEp-2 cells – cell-based, HTS, cytotoxicity control for RSV inhibitor project, dose response (AID 2410); type: functional; settings: human respiratory syncytial virus
[32] = Luminescence Cell-Based Dose Confirmation HTS to Identify Activators of 5'UTR Stem-Loop Driven Alpha-Synuclein mRNA Translation in H4 Neuroglioblastoma Cells. [Related pubchem assays: 1829 (Project Summary), 1814 (Primary HTS)]; type: functional
[33] = Luminescence Cell-Based Dose Response HTS to Identify Activators of Luciferase Translation or Activity in H4 […] Cells. [Related pubchem assays: 1829 (Project Summary), 1814 (Primary HTS)]; type: functional
[34] = tested on: H4; experiment: Luminescence Cell-Based Dose Response HTS to Identify Activators of 5'UTR Stem-Loop Driven Prion Protein mRNA Translation in H4 Neuroglioblastoma Cells. [Related pubchem assays: 1829 (Project Summary), 1814 (Primary HTS)]; type: functional; settings: Homo sapiens
[35] = rise of 2N DNA cells, HeLa – IC50, dose response (AID 1117349); type: functional, cell-based
[36] = rise of 4N DNA cells, HeLa – IC50, dose response (AID 1117351); type: functional, cell-based

Sphingosine 1-phosphate receptor 2, sequence (O95136 whole entry, the tested form may be a part): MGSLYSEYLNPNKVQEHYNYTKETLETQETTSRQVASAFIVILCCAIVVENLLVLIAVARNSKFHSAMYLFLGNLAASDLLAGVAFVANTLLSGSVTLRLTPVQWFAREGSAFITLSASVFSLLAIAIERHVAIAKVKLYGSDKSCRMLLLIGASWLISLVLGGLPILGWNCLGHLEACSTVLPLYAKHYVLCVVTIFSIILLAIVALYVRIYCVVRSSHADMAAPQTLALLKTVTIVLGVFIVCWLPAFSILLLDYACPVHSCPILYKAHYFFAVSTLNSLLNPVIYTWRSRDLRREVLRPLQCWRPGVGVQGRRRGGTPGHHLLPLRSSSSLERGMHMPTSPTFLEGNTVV
NS3, sequence (A3EZJ3 whole entry): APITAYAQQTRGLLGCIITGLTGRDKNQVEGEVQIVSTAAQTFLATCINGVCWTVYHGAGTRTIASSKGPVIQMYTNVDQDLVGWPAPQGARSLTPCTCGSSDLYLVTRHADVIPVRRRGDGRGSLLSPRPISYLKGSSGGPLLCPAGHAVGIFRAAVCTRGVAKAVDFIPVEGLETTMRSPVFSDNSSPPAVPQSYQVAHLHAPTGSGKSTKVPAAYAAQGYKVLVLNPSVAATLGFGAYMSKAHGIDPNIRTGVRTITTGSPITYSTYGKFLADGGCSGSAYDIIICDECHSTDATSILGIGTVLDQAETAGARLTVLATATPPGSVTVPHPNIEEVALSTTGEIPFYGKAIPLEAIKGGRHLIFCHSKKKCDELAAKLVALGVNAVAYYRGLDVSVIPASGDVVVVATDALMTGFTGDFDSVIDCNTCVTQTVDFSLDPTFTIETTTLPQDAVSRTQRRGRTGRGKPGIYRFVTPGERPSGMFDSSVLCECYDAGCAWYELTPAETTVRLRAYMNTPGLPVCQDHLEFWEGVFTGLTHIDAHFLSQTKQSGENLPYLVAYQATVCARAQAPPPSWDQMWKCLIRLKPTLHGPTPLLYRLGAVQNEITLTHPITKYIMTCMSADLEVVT
Peroxisome proliferator-activated receptor gamma/Nuclear receptor coactivator 2, sequence (P37231 whole entry): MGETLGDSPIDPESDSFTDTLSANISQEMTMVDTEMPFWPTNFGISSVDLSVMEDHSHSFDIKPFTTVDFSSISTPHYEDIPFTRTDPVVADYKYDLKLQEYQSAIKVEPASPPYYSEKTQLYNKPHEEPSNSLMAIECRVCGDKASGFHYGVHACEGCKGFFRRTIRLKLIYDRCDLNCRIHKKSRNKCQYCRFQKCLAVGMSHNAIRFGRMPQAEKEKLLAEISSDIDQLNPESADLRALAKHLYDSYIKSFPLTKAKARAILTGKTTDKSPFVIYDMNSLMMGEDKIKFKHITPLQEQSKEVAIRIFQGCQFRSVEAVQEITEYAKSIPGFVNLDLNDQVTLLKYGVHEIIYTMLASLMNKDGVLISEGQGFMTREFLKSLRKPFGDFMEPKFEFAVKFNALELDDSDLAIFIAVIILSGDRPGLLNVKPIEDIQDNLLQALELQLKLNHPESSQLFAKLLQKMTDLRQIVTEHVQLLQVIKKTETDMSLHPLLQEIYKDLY
Peroxisome proliferator-activated receptor gamma/Nuclear receptor coactivator 2, sequence (Q15596 whole entry, further chain): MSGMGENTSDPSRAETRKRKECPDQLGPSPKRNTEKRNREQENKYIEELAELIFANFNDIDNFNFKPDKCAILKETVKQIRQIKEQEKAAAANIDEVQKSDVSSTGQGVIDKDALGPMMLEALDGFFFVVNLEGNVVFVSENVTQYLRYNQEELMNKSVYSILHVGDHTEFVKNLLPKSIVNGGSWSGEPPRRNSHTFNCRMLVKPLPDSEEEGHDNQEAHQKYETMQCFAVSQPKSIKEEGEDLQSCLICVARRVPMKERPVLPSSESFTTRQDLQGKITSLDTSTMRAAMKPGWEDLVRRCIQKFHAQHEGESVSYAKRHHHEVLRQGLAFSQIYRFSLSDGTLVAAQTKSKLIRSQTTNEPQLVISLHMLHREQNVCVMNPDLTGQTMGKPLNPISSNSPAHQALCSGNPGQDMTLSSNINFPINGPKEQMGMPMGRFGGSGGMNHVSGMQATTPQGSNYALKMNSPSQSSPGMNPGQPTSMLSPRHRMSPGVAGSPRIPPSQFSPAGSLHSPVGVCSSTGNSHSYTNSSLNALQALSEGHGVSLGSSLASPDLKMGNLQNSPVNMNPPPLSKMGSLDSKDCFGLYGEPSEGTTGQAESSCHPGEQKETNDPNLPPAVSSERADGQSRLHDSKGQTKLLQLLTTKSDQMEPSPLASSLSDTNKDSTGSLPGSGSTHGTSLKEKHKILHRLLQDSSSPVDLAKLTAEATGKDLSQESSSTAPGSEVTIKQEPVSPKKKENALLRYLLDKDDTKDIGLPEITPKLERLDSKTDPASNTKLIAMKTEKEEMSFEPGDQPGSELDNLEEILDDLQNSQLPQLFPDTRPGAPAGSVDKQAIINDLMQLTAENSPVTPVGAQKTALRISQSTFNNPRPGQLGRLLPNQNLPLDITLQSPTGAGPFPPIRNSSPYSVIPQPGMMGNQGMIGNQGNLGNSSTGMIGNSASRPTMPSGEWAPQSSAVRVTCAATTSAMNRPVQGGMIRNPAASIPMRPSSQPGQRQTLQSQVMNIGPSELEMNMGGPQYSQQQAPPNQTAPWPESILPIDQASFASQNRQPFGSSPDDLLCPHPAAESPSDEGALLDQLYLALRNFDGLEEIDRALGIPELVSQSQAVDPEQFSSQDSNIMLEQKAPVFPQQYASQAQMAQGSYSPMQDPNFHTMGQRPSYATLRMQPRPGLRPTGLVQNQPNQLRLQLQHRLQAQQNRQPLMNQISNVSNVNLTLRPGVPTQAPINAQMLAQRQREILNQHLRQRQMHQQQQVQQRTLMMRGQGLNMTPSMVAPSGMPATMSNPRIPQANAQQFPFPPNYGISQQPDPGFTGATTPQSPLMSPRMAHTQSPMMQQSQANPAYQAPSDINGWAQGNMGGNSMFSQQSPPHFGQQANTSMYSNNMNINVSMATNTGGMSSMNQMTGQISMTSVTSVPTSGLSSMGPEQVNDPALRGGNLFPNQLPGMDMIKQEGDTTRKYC
Peroxisome proliferator-activated receptor gamma/Nuclear receptor coactivator 1, sequence (P37231 whole entry): as the sequence (P37231 whole entry) above
Peroxisome proliferator-activated receptor gamma/Nuclear receptor coactivator 1, sequence (Q15788 whole entry, further chain): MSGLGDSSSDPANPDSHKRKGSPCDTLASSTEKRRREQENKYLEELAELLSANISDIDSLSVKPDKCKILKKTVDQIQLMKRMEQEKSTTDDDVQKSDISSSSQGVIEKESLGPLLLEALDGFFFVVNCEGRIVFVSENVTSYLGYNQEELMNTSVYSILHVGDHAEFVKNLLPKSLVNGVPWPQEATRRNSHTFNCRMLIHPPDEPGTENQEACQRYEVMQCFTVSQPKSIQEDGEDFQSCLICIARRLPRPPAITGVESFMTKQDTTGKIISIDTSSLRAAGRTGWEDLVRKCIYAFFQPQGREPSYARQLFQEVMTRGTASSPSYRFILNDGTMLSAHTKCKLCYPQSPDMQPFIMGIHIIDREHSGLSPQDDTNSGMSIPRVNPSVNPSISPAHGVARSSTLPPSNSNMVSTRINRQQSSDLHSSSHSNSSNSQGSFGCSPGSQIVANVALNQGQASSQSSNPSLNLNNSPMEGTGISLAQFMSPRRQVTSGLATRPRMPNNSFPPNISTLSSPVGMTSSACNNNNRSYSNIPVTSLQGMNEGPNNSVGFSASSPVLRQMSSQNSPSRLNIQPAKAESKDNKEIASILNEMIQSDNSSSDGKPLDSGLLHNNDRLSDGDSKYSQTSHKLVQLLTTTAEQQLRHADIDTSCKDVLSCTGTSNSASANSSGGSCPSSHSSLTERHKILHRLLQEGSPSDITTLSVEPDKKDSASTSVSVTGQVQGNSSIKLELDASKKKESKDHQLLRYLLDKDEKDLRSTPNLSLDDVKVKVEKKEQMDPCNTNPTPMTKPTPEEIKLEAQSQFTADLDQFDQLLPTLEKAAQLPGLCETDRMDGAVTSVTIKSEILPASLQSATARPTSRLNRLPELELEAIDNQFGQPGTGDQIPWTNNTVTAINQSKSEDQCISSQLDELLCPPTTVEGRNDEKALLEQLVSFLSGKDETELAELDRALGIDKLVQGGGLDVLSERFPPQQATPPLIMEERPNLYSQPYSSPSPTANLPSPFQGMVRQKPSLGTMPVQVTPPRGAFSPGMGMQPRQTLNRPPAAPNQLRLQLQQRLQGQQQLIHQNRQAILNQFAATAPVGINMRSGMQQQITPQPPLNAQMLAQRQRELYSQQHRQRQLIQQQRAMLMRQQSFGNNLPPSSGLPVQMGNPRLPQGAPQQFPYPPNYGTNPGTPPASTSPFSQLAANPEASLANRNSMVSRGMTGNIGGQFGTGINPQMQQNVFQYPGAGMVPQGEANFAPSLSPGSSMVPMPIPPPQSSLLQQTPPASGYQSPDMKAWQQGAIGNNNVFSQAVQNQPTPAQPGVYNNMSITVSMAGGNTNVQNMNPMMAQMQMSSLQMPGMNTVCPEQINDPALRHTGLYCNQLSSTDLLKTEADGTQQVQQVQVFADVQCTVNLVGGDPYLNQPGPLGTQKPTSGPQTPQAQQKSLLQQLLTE
Protein Tat, sequence (P04608 whole entry): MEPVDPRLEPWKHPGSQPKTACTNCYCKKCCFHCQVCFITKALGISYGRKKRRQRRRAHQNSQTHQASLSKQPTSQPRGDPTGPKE

CCCCN(CC)CCNC(=O)c1nn(-c2ccc(OC)cc2)c(=O)c2c1c1ccccc1n2C
EC50 [1]: < 0.1 µM (active) | EC50 [2]: > 60 µM (not active) | EC50 [3]: 0.207 µM (active)

Cc1ccc(C(=O)OCC(=O)Nc2sc3c(c2C#N)CCCCC3)cc1NC(=O)c1ccco1
EC50 [4]: > 20 µM (not active) | EC50 [5]: > 20 µM (not active)

CCN1CCN(C(=O)c2ccc3c(=O)n(C4CCCC4)c(=S)[nH]c3c2)CC1
IC50 [6]: > 109 µM (inactive) | IC50 [7]: > 83.3 µM (inactive)

CCCOc1ccc(C(=O)C2=C(O)C(=O)N(c3ccccn3)C2c2ccccc2F)cc1C (stereo not drawn)
IC50 [8]: 5.77 µM (active) | IC50 [9]: 2.96 µM (active) | IC50 [10]: > 138 µM (inactive)

COC(=O)c1ccc(COC(=O)c2ccc(S(=O)(=O)N3CCC(C)CC3)cc2)o1
EC50 [11]: > 79.4 µM (not active) | EC50 [12]: > 79.4 µM (not active) | EC50 [13]: > 79.4 µM (not active) | EC50 [14]: 12.6 µM (not active)

Cc1cc(C(=O)CSc2nnc(C3CC3)n2C)c(C)n1Cc1ccccc1
EC50 [15]: > 30 µM (not active)

Cn1c(N=Nc2ccc(N3CCOCC3)cc2)[n+](C)c2ccccc21
EC50 [16]: > 300 µM (not active) | EC50 [17]: 219 µM (active) | IC50 [18]: 8.01 µM (active) | CC50 [19]: 100 µM (active) | IC50 [20]: 26 µM (active) | AC50 [21]: 2.36 µM (active) | IC50 [22]: 34 µM (inactive)

O=C1C(Cl)=C(Cl)C(=O)N1c1ccc(Cl)cc1Cl
IC50 [23]: > 100 µM (not active) | IC50 [24]: 0.74 µM (active) | IC50 [25]: 1.64 µM (active)

CC(C)(Oc1ccc(Cl)cc1)C(=O)NCc1ccco1
IC50 [26]: > 100 µM (active)

O=[N+]([O-])c1cccc(S(=O)(=O)c2ccc(N3CCCCC3)c([N+](=O)[O-])c2)c1
IC50 [6]: > 109 µM (inactive) | IC50 [7]: > 83.3 µM (inactive)

COC(=O)c1c(NC(=O)Cn2cnc([N+](=O)[O-])n2)sc2c1CCC(C)C2 (stereo not drawn)
EC50 [1]: < 0.1 µM (active) | EC50 [2]: > 60 µM (inconclusive) | EC50 [3]: 0.112 µM (active)

Cc1cc(C(=O)CN2C(=O)NC3(CCOc4ccccc43)C2=O)c(C)n1Cc1ccccc1 (stereo not drawn)
EC50 [15]: > 30 µM (not active)

CCS(=O)(=O)N1CCC2(CC1)CN(S(=O)(=O)c1ccc(C)cc1)[C@@H](CO)c1[nH]c3cc(OC)ccc3c12
AC50 [27]: 1.04 µM (active) | AC50 [28]: 1.3 µM (active) | AC50 [29]: 0.88 µM (active) | AC50 [30]: 0.738 µM (active)

C[C@H]1CCC[C@@H](O)CCC/C=C/c2cc(O)cc(O)c2C(=O)O1
CC50 [31]: 8.71 µM (active) | EC50 [32]: 15.3 µM (active) | EC50 [33]: > 120 µM (not active) | EC50 [34]: > 120 µM (not active) | EC50 [14]: 9.22 µM (active)

Nc1nc(=O)n([C@@H]2O[C@H](CO)[C@@H](O)[C@@H]2F)cc1I [FIACITABINE]
IC50 [35]: > 10 µM (inactive) | IC50 [36]: > 10 µM (inactive)
